Patent publication US11084799B2, “Polymorph of benzamide compound and preparation method and applications thereof” (SHENYANG SINOCHEM AGROCHEMICALS R&D CO., LTD., priority 2016, dated 2021)
Entries after “also recorded” stand apart in the source; their conditions may differ.

Columns and labels:
[1] = Pourability of 10% water suspending agent; assay type: physicochemical
Description: (§1) The formulation includes the following composition: 10 parts of polymorph A of Compound 1 or polymorph B of Compound 1 obtained in above examples, 3 parts of sodium naphthalenesulfonate formaldehyde condensate, 3 parts of sodium salt of alkyl naphthalene sulfonic acid polycondensate, 0.1 part of white carbon black, 0.1 part of xanthan gum, 2 parts of pesticide emulsifier 0201B, 5 parts of glycol, 0.2 part of WJX-1 and water which is used to complement up to 100 parts by weight were successively added to a mixing tank for mixing. After conducting coarse grinding and homogenization through high shear, the mixture was grinded in a sand mill and detected the particle size of sanding materials through a sedimentograph. After the particle size meeting the standard requirements, the mixture was filtered to obtain 10% water suspending agent of polymorph A of Compound 1 or polymorph B of Compound 1.

[2] = Heat storage (54 ± 2° C.) of 10% water suspending agent; assay type: physicochemical
Description: as §1

[3] = Formulation sample (10% water suspending agent) kept at normal temperatures; assay type: physicochemical
Description: as §1

[4] = Particle size distribution of 10% water suspending agent; assay type: physicochemical
Description: as §1

[5] = Suspensibility in processing of the formulation; assay type: physicochemical; conditions: compared with polymorph B
Description: (§2) The polymorph A also presents better performance than the compound 1 prepared by the method (example 5) in the patent WO02010003350A1 in the aspect of the physical properties of the formulation.

[6] = assay type: physicochemical
Description: In the present invention, the slurry of the polymorph B of Compound 1 is heated in the presence of the solvent to convert into the polymorph A of Compound 1. The solvent is selected from the alcohol solvent and/or water. The alcohol solvent is selected from methanol, ethanol, n-propanol, isopropanol, n-butanol and n-pentanol. The adopted solvent can well convert the polymorph B into the polymorph A. In addition, the water as the solvent is well used to convert the polymorph B into the polymorph A. Furthermore, in the conversion process, at a temperature not more than 100° C., almost 100% conversion is completed at high yield within proper time. In the selection of the solvent, the water is selected to effectively reduce cost compared with the organic solvent. […] As an alternative, if the polymorph A with high concentration is in the water, then the polymorph A can be separated through evaporation of the water.

[7] = Hygroscopicity on exposure to changing air humidity; assay type: physicochemical; conditions: exposed to changing air humidity
Description: (§3) The advantages of the polymorph A in aspects such as chemical stability, filterability, solubility, hygroscopicity, melting point, solid density and flowability can have a significant impact on the developments of the production method and a formulation and on the quality and efficacy of a plant treating agent. […] The stability is favorable for determination of consistency of Compound 1. These features enable the polymorph A of Compound 1 to be well suitable for preparing a long effective and stable solid formulation so that the polymorph A has stable content of active component.

[8] = Crystal form stability during long-term storage; assay type: physicochemical
Description: as §3

[9] = Insecticidal activity (pharmacodynamic stability), polymorph A versus polymorph B; conditions: compared with polymorph B
Description: as §2

[10] = Dispersibility of 10% water suspending agent; assay type: physicochemical; conditions: after normal temperature for 2 years and heat storage (54 ± 2° C./14 d)
Description: as §1

SMILES: CNC(=O)c1cc(Cl)cc(Cl)c1NC(=O)c1cc(Br)nn1-c1ncc(Cl)cc1Cl [Compound 1 Prepared by the Method in WO2010003350A1] [3-bromo-N-[2,4-dichloro-6-[(methylamino)carbonyl]phenyl]-1-(3,5-dichloro-2-pyridinyl)-1H-pyrazole-5-carboxamide, reference compound]
- Pourability: flow / flowability of the formulation sample ([1]; 10% water suspending agent): suspending agent has poor
- Pourability: residues after washed ([1]; 10% water suspending agent): unqualified.
- Heat storage (54 ± 2° C.): state of the formulation sample ([2]; suspending agent, observed after heat storage for 3 days): solidified and could not shake.
- Kept at normal temperatures: flowability of the formulation sample ([3]; suspending agent, after kept for 1 week): suspending agent has poor
- Particle size distribution ([4]; suspending agent, no storage time stated): distribution is wide.

SMILES: CNC(=O)c1cc(Cl)cc(Cl)c1NC(=O)c1cc(Br)nn1-c1ncc(Cl)cc1Cl [Polymorph A, 3-bromo-N-[2,4-dichloro-6-[(methylamino)carbonyl]phenyl]-1-(3,5-dichloro-2-pyridinyl)-1H-pyrazole-5-carboxamide]
- Pourability (overall verdict) ([1]; 10% water suspending agent): qualified.
- Pourability: flow / flowability of the formulation sample ([1]; 10% water suspending agent): good flowability; after
- Pourability: residues after washed ([1]; 10% water suspending agent): ≤ 0.5%; the pourability is
- Pourability ([1]; in the processing of the formulation, compared with polymorph B): better pourability
- Suspensibility [5]: better suspensibility
- Heat storage (54 ± 2° C.): flowability of the formulation sample ([2]; 10% water suspending agent, after kept for 14 days at 54 ± 2° C.): agent has good flowability
- Solubility in the water [6]: very low solubility
- Hygroscopicity [7]: does not present obvious hygroscopicity
- Conversion into other crystal forms [8]: does not convert into other crystal forms; also recorded: may not be converted into other crystal forms
- Stability [8]: excellent stability
- Kept at normal temperatures: flowability of the formulation sample ([3]; 10% water suspending agent, after kept for two years): suspending agent has good
- Kept at normal temperatures: viscosity of the formulation sample ([3]; 10% water suspending agent, after kept for two years, printed as almost unchanged): unchanged viscosity.
- Insecticidal activity [9]: better insecticidal activity
- Flowability (Dispersibility line) [10]: good dispersibility and good; also recorded: good flowability
- Particle size distribution ([4]; 10% water suspending agent, after normal temperature for 2 years and heat storage (54 ± 2° C./14 d), printed as almost unchanged): unchanged.

SMILES: CNC(=O)c1cc(Cl)cc(Cl)c1NC(=O)c1cc(Br)nn1-c1ncc(Cl)cc1Cl [Polymorph B, 3-bromo-N-[2,4-dichloro-6-[(methylamino)carbonyl]phenyl]-1-(3,5-dichloro-2-pyridinyl)-1H-pyrazole-5-carboxamide]
- Pourability: flow / flowability of the formulation sample ([1]; 10% water suspending agent): suspending agent does not
- Pourability: residues after washed ([1]; 10% water suspending agent): unqualified.
- Heat storage (54 ± 2° C.): state of the formulation sample ([2]; 10% water suspending agent, observed after heat storage for 1 h): solidified and could not shake.
- Hygroscopicity [7]: obvious hygroscopicity
- Kept at normal temperatures: state of the formulation sample of the suspending agent ([3]; 10% water suspending agent, observed after kept for 2 h): suspending agent is solidified
- Particle size distribution ([4]; 10% water suspending agent, after kept at normal temperature for 1 week): wide.
